Earlier results on 40 compounds are cited in US20250115648A1 (priority 2013, published 2025).

For this data set the following is noted: cited from earlier work; for Peak Abs.: peak absorbance wavelength of exemplary fluorescent reporter molecule; for Peak Em.: peak emission wavelength of exemplary fluorescent reporter molecule.

Structures are written as SMILES. Where “and” joins values, the source holds several entries; their conditions need not be identical. Equal values may be shown once.

Take `CN(C)c1ccc2c(-c3ccc(CCl)cc3)c3ccc(=[N+](C)C)cc-3oc2c1.[Cl-]`: the “Peak Abs.” value is 551 nanometers and the “Peak Em.” value is listed as 576 nanometers.
Take `O=S(=O)(O)c1cccc2cccc(Nc3ccccc3)c12` [1,8-ANS]: the “Peak Abs.” value was 372 nanometers and the “Peak Em.” value was 480 nanometers.
In the case of `CCCCCCCCCCCCc1cc2nc3ccc(O)cc3oc-2cc1=O` [2-dodecylresorufm], the “Peak Abs.” value is reported as 582 nanometers and the “Peak Em.” value is 595 nanometers.
Turning to `Cc1c(CC(=O)O)c(=O)oc2cc(N)ccc12` [AMCA, aminomethylcoumarin], the “Peak Abs.” value is on record as 345 nanometers and the “Peak Em.” value is reported as 425 nanometers.
For the compound `Cc1c(CC(=O)NCCCCCC(=O)O)c(=O)oc2cc(N)ccc12` [AMCA-X], the “Peak Abs.” value is given as 353 nanometers and the “Peak Em.” value is 442 nanometers.
As for `Nc1ccc2cc3ccc(N)cc3[n+](CCCC(=O)O)c2c1.[O-][Cl+3]([O-])([O-])[O-]` [ATTO 465], the “Peak Abs.” value is given as 453 nanometers and the “Peak Em.” value is 507 nanometers.
On to `CC[N+]1=c2cc3c(cc2C(CS(=O)(=O)O)=CC1(C)C)=Cc1cc2c(cc1C3(C)C)N(CCCC(=O)O)C(C)(C)CC2C.[O-][Cl+3]([O-])([O-])[O-]` (centres unmarked) [ATTO 647], for which the “Peak Abs.” value is 644 nanometers and the “Peak Em.” value is recorded as 670 nanometers.
Consider `CC[N+]1=c2cc3c(cc2CCC1)=Nc1cc2c(cc1O3)N(CCCC(=O)O)C(C)(C)C=C2CS(=O)(=O)[O-]` [ATTO 680], for which the “Peak Abs.” value is on record as 680 nanometers and the “Peak Em.” value is on record as 700 nanometers.
Take `CCN1c2cc3c(cc2C(C)=CC1(C)C)N=c1cc2c(cc1O3)=[N+](CCCC(=O)O)C(C)(C)C=C2CS(=O)(=O)O` [ATTO 700]: the “Peak Abs.” value was 699 nanometers and the “Peak Em.” value is recorded as 719 nanometers.
In the case of `CC1(C)C=C(CS(=O)(=O)O)c2cc3c(C(F)(F)F)cc(=O)oc3cc2N1CCCCCC(=O)ON1C(=O)CCC1=O.CCN(CC)CC` [Alexa Fluor 430], the “Peak Em.” value is given as 540 nanometers.
For the compound `CC1CC(C)(C)Nc2c1cc1c(c2S(=O)(=O)[O-])Oc2c(S(=O)(=O)[O-])c3c(cc2=C1c1c(Cl)c(SCC(=O)NCCCCCC(=O)ON2C(=O)CCC2=O)c(Cl)c(Cl)c1C(=O)O)C(C)CC(C)(C)N=3.[H+].[Na+]` (centres unmarked) [Alexa Fluor 546], the “Peak Abs.” value is 561 nanometers and the “Peak Em.” value is reported as 572 nanometers.
`CN1C(=Cc2cc[n+](CCC[N+](C)(C)CCC[N+](C)(C)CCC[n+]3ccc(C=C4Sc5ccccc5N4C)cc3)cc2)Sc2ccccc21.[I-].[I-].[I-].[I-]` [BOBO-1]: the “Peak Abs.” value is 570 nanometers and the “Peak Em.” value was 602 nanometers.
As to `CN1/C(=C/C=C/c2cc[n+](CCC[N+](C)(C)CCC[N+](C)(C)CCC[n+]3ccc(/C=C/C=C4/Sc5ccccc5N4C)cc3)cc2)Sc2ccccc21.[I-].[I-].[I-].[I-]` [BOBO-3], the “Peak Abs.” value is 570 nanometers and 571 nanometers; the “Peak Em.” value is 602 nanometers and 606 nanometers.
Consider `CC1=CC(C)=[N+]2C1=Cc1c(C)cc(C)n1[B-]2(F)F` [BODIPY 505/515], for which the “Peak Abs.” value is listed as 502 nanometers and the “Peak Em.” value is on record as 540 nanometers.
For `O=C(COc1ccc(/C=C/c2ccc3n2[B-](F)(F)[N+]2=C(c4cccs4)C=CC2=C3)cc1)NCCCCCC(=O)ON1C(=O)CCC1=O` [Bodipy 630/650-X], the “Peak Em.” value is reported as 641 nanometers.
Consider `O=C(COc1ccc(C2=[N+]3C(=Cc4ccc(-c5cccs5)n4[B-]3(F)F)C=C2)cc1)NCCCCCC(=O)ON1C(=O)CCC1=O` [Bodipy TR-X], for which the “Peak Abs.” value is reported as 588 nanometers and the “Peak Em.” value is reported as 621 nanometers.
For `O=C([O-])CN(CC(=O)[O-])c1ccccc1OCCOc1cc(NC(=O)c2ccc3c(c2)C(=O)OC32c3cc(Cl)c([O-])cc3Oc3cc([O-])c(Cl)cc32)ccc1N(CC(=O)[O-])CC(=O)[O-].[K+].[K+].[K+].[K+].[K+].[K+]` [Calcium Green-1], the “Peak Abs.” value is recorded as 506 nanometers and the “Peak Em.” value is reported as 540 nanometers.
As to `O=S(=O)(O)c1cc(Nc2nc(Nc3ccccc3)nc(N(CCO)CCO)n2)ccc1/C=C/c1ccc(Nc2nc(Nc3ccccc3)nc(N(CCO)CCO)n2)cc1S(=O)(=O)O` [Calcofluor White], the “Peak Abs.” value is recorded as 350 nanometers and the “Peak Em.” value is 440 nanometers.
On to `CC(=O)Oc1ccc2c(c1)Oc1cc(OC(C)=O)ccc1C21OC(=O)c2cc(CCl)ccc21` [CellTracker Green], for which the “Peak Abs.” value was 490 nanometers and the “Peak Em.” value was 540 nanometers.
Take `CC1=CC(C)(C)N(C)c2cc3[o+]c4cc5c(cc4c(-c4cc(NC(=O)c6ccc(CCl)cc6)ccc4C(=O)[O-])c3cc21)C(C)=CC(C)(C)N5C.CC1=CC(C)(C)N(C)c2cc3[o+]c4cc5c(cc4c(-c4ccc(NC(=O)c6ccc(CCl)cc6)cc4C(=O)[O-])c3cc21)C(C)=CC(C)(C)N5C` [CellTracker Red CMTPX]: the “Peak Abs.” value is listed as 584 nanometers and the “Peak Em.” value is recorded as 613 nanometers.
On to `O=c1cc(CBr)c2cc3c4c(c2o1)CCCN4CCC3` [CellTracker Violet BMQC], for which the “Peak Abs.” value is 415 nanometers and the “Peak Em.” value is 516 nanometers.
As to `O=C([O-])c1ccc(C2=c3cc4c5c(c3Oc3c2cc2c6c3CCCN6CCC2)CCC[N+]=5CCC4)c(C(=O)O)c1` [Compound 5-ROX], the “Peak Abs.” value is 577 nanometers and the “Peak Em.” value was 603 nanometers.
Consider `Cc1c2oc3c(C)c(N)cc(C(=O)N[C@@H]4C(=O)N[C@H](C(C)C)C(=O)N5CCC[C@H]5C(=O)N(C)CC(=O)N(C)[C@@H](C(C)C)C(=O)O[C@@H]4C)c3nc-2c(C(=O)N[C@@H]2C(=O)N[C@H](C(C)C)C(=O)N3CCC[C@H]3C(=O)N(C)CC(=O)N(C)[C@@H](C(C)C)C(=O)O[C@@H]2C)c(N)c1=O` [Compound 7-AAD, 7-AAD], for which the “Peak Abs.” value is recorded as 549 nanometers and the “Peak Em.” value was 644 nanometers.
Take `CCCCCCCCCCCC[N+](C)(CCCS(=O)(=O)[O-])Cc1ccc2oc(-c3ccc(N(CC)CC)cc3)c(O)c(=O)c2c1` (centres unmarked) [Compound F2N12S]: the “Peak Abs.” value is reported as 405 nanometers.
On to `CCN1C(=CC=CC2=[N+](CCCCCC(=O)O)c3ccc(S(=O)(=O)O)cc3C2(C)C)C(C)(C)c2cc(S(=O)(=O)[O-])ccc21` [Cy3], for which the “Peak Abs.” value is 552 nanometers and the “Peak Em.” value is given as 570 nanometers.
With `CCN1C(=CC=CC=CC=CC2=[N+](CCCCCC(=O)O)c3ccc(S(=O)(=O)O)cc3C2(C)C)C(C)(C)c2cc(S(=O)(=O)[O-])ccc21` [Cy7], the “Peak Abs.” value is 745 nanometers and the “Peak Em.” value is on record as 766 nanometers.
For `CC1(C)C2=C(Cl)C(=O)C(Cl)=CC2=Nc2ccc(O)cc21` [DDAO], the “Peak Abs.” value is given as 648 nanometers and the “Peak Em.” value is 658 nanometers.
In the case of `CN(C)CCNc1ccc(O)c2c1C(=O)c1c(O)ccc(NCCN(C)C)c1C2=O` [DRAQ5], the “Peak Abs.” value is listed as 650 nanometers and the “Peak Em.” value is recorded as 680 nanometers.
Consider `CCN1c2cc3c(cc2C(C)=CC1(C)C)C(=CC=CC1=[N+](CCCCCC(=O)O)c2ccc(S(=O)(=O)[O-])cc2C1(C)C)C=C(c1ccccc1)O3` [DY-675], for which the “Peak Abs.” value is on record as 675 nanometers and the “Peak Em.” value is given as 699 nanometers.
For `CCCCCCCCCCCCCCCCCCN1/C(=C/C=C/C=C/C2=[N+](CCCCCCCCCCCCCCCCCC)c3ccccc3C2(C)C)C(C)(C)c2ccccc21.[O-][Cl+3]([O-])([O-])[O-]` [DiD (Vybrant DiD)], the “Peak Abs.” value was 645 nanometers and the “Peak Em.” value was 670 nanometers.
Consider `Cc1cc(=O)oc2c(F)c(O)c(F)cc12` [DiFMU (pH 9.0)], for which the “Peak Abs.” value is recorded as 357 nanometers and the “Peak Em.” value is 450 nanometers.
With `CCCCCCCCCCCCCCCCCCN1/C(=C/C=C/C2=[N+](CCCCCCCCCCCCCCCCCC)c3ccccc3C2(C)C)C(C)(C)c2ccccc21.[O-][Cl+3]([O-])([O-])[O-]` [DiI (CellTrackerDiI)], the “Peak Abs.” value is reported as 551 nanometers and the “Peak Em.” value was 568 nanometers.
For `CCCCCCCCCCCCCCCCCCN1/C(=C\C=C\c2oc3ccccc3[n+]2CCCCCCCCCCCCCCCCCC)Oc2ccccc21.[O-][Cl+3]([O-])([O-])[O-]` [DiO (Vybrant DiO)], the “Peak Abs.” value is given as 489 nanometers and the “Peak Em.” value was 506 nanometers.
For the compound `CCCCCCCCCCCCCCCCCCN1/C(=C\C=C\c2oc3ccccc3[n+]2CCCCCCCCCCCCCCCCCC)Oc2ccccc21.[O-][Cl+3]([O-])([O-])[O-]` [DiO], the “Peak Abs.” value is recorded as 484 nanometers and the “Peak Em.” value is reported as 501 nanometers.
As for `CN(C)c1ccc(-c2cnc(-c3ccc(S(=O)(=O)NCCNC(=O)c4c(F)c(F)c(F)c(F)c4F)cc3)o2)cc1` [ER-Tracker Blue-White DPX], the “Peak Abs.” value is listed as 371 nanometers and the “Peak Em.” value is listed as 554 nanometers.
Turning to `O=C1OC2(c3ccc(O)cc3Oc3cc(O)ccc32)c2ccc(N=C=S)cc21` [FITC (Fluorescein), fluorescein isothiocyanine], the “Peak Abs.” value is given as 492 nanometers and the “Peak Em.” value is recorded as 520 nanometers.
Turning to `CC(=O)Oc1cc2c(cc1Cl)C(c1ccccc1C(=O)O)c1cc(Cl)c(OC(C)=O)cc1O2` [H2DCFDA (H2-DCF, DCFR)], the “Peak Abs.” value was 504 nanometers and the “Peak Em.” value was 540 nanometers.
As to `O=S(=O)([O-])c1cc(O)c2ccc3c(S(=O)(=O)[O-])cc(S(=O)(=O)[O-])c4ccc1c2c34.[Na+].[Na+].[Na+]` [HPTS (Solvent Green 7)], the “Peak Abs.” value is 455 nanometers and the “Peak Em.” value is 510 nanometers.
Regarding `CC1(C)C(=CC=C2CCCC(C=CC3=[N+](CCCCCC(=O)[O-])c4ccc(S(=O)(=O)[O-])cc4C3(C)C)=C2Oc2ccc(S(=O)(=O)[O-])cc2)N(CCCCS(=O)(=O)[O-])c2ccc(S(=O)(=O)[O-])cc21.[Na+].[Na+].[Na+].[Na+]` [IRDye 800CW], the “Peak Abs.” value is given as 774 nanometers and the “Peak Em.” value is reported as 789 nanometers.
On to `CN(C)CCNC(=O)CCc1ccc2n1[B-](F)(F)[N+]1=C(c3ccc[nH]3)C=CC1=C2` [LysoTracker Red], for which the “Peak Abs.” value was 573 nanometers and the “Peak Em.” value is on record as 592 nanometers.
